Assays:
[1] = test system: osteoclasts (osteoclastic bone resorption); test: Bone resorption hit screening, CTX release from osteoclasts on bovine bone slices; format: cell-based, human; details: positive control, V-ATPase blocker, concentration not given
From the text: Studies have determined that osteoclasts are largely derived from CD14 positive monocytes (J. Haemotol, 1999 July; 106(1):167-70). Clonal analysis of haematopoietic cells by surface phenotypes has been used to further identify osteoclast precursor by characterizing osteoclast like cells distinct from other haematopoietic progenitors (Lee et. al; 1992b Muguruma & Lee; 1988). Surface phenotype analysis has shown that human osteoclasts are derived from CD14 monocytes (Massey & Flanagan, 1999). CD 14 marker is strongly expressed on monocytes, the putative osteoclast precursor in peripheral blood and CD14 positive monocytes have been selected for osteoclastogenesis. (Clin. Sci (Lond) 2000, August, 99(2): 133-40).
The osteoclasts were isolated as CD14 positive monocytes and differentiated into osteoclasts for 10-12 days. Hereafter, the osteoclasts were lifted by trypsin, counted and seeded on bovine bone slices at a density of 40000 cells per bone slice. The osteoclasts were seeded on the bone slices for one day before the plant extracts were added. The osteoclasts were hereby allowed to attach and initiate resorption. […]
The bone resorption experiment was ended after 5 days of incubation and the cell viability was measured by the use of the AlamarBlue assay. Bone resorption was evaluated as the determination of the CTX release.

[2] = cited from earlier work

Row | SMILES | inhibition of osteoclastic bone resorption compared to DMSO [1] | increase of bone mineral density in the spine ([2]; in 18 months, once daily subcutaneous injection) | reduction of the risk of fracture ([2]; patients)
1 | CO/C1=C\C(C)=C\[C@@H](C)[C@@H](O)[C@@H](C)C/C(C)=C/C=C/[C@H](OC)[C@@H]([C@@H](C)[C@@H](O)[C@H](C)[C@@]2(O)C[C@@H](O)[C@H](C)[C@@H](C(C)C)O2)OC1=O [Bafilomycin] | approximately 80% | – | –
2 | CC[C@H](C)[C@H](NC(=O)[C@H](CCC(=O)O)NC(=O)[C@H](CO)NC(=O)[C@@H](NC(=O)[C@@H](N)CO)C(C)C)C(=O)N[C@@H](CCC(N)=O)C(=O)N[C@@H](CC(C)C)C(=O)N[C@@H](CCSC)C(=O)N[C@@H](Cc1cnc[nH]1)C(=O)N[C@@H](CC(N)=O)C(=O)N[C@@H](CC(C)C)C(=O)NCC(=O)N[C@@H](CCCCN)C(=O)N[C@@H](Cc1cnc[nH]1)C(=O)N[C@@H](CC(C)C)C(=O)N[C@@H](CC(N)=O)C(=O)N[C@@H](CO)C(=O)N[C@@H](CCSC)C(=O)N[C@@H](CCC(=O)O)C(=O)N[C@@H](CCCN=C(N)N)C(=O)N[C@H](C(=O)N[C@@H](CCC(=O)O)C(=O)N[C@@H](Cc1c[nH]c2ccccc12)C(=O)N[C@@H](CC(C)C)C(=O)N[C@@H](CCCN=C(N)N)C(=O)N[C@@H](CCCCN)C(=O)N[C@@H](CCCCN)C(=O)N[C@@H](CC(C)C)C(=O)N[C@@H](CCC(N)=O)C(=O)N[C@@H](CC(=O)O)C(=O)N[C@H](C(=O)N[C@@H](Cc1cnc[nH]1)C(=O)N[C@@H](CC(N)=O)C(=O)N[C@@H](Cc1ccccc1)C(=O)O)C(C)C)C(C)C [teriparatide] | – | ≤ 13% | ≤ 90%
